Assays:
[1] = biological target: GST-CBP(1081-1197) bromodomain (Homo sapiens (Human), UniProt Q92793); test: CBP AlphaScreen Assay; conditions: binding to biotin-H4(1-21) Ac-K5/8/12/16
Description: (§1) Specific binding of the CBP or BRD4 bromodomain to the acetylated peptide derived from the H4 histone substrate (tetra acetylated H4(1-21) Ac-K5/8/12/16) was measured in absence or presence of inhibitors. The GST tagged bromodomains of CBP (1081-1197) and BRD4 (49-170) were obtained from BPS Bioscience and binding to the biotinylated H4(1-21) Ac-K5/8/12/16 (AnaSpec. 64989) was assessed via AlphaScreen technology (Perkin Elmer).
(§2) 5 nM GST-CBP(1081-1197) and 20 nM biotin-H4(1-21) Ac-K5/8/12/16 (AnaSpec. 64989) were incubated with varying concentrations of CBP inhibitors in 15 μL of buffer containing 50 mM HEPES 7.5, […], 1 mM TCEP, and 0.003% Tween-20. After 30 minutes incubation at room temperature, 15 μL of detection buffer (BPS Bio. 33006) containing 7 μg/mL of Glutathione AlphaLisa acceptor beads (Perkin Elmer AL109) and 14 μg/mL of Streptavidin donor beads (Perkin Elmer 676002) was then added to the previous mixture. The reaction was incubated for an additional 2 hours at room temperature, and the AlphaScreen signal was quantified using the Envision Multilabel plate reader. As negative control, GST-CBP(1081-1197) was incubated with the non-acetylated biotin-H4(1-21) peptide(AnaSpec. 62555) and in presence of 0.25% of final DMSO concentration.
(§3) the binding of 2.5 nM of BRD4(49-170) to 10 nM biotin-H4(1-21) Ac-K5/8/12/16 (AnaSpec. 64989) was assessed following the same procedure described for the CBP assay. The standard dose response curves were fitted by Genedata Screener software using the variable-slope model: Signal=Signalnegative control+(SignalDMSO control−Signalnegative control)/(1+(IC50/Dose)^Hill slope).
(§4) Only Signal and Dose in the equation were treated as know values.

[2] = biological target: BRD4(49-170) bromodomain (Homo sapiens (Human), UniProt O60885); test: BRD4 AlphaScreen Assay; conditions: binding to biotin-H4(1-21) Ac-K5/8/12/16
Description: as §1, §2, §3, §4

GST-CBP(1081-1197) bromodomain, sequence (Q92793 1081-1197): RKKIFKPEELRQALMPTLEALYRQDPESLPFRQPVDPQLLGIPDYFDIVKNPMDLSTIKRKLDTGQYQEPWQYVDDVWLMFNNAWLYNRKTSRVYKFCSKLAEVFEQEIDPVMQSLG

Compound `Cc1ncn(-c2nc3cccc(-c4nc(C5CC5)n5c4CN(C)C(=O)C5C)c3cc2C(F)F)n1` (stereo not shown) [Example 67, 3-cyclopropyl-1-(3-(difluoromethyl)-2-(3-methyl-1H-1,2,4-triazol-1-yl)quinolin-5-yl)-5,7-dimethyl-7,8-dihydroimidazo[1,5-a] pyrazin-6(5H)-one] has an IC50 [1] of 3 nM and an IC50 [2] of 319 nM.

`Cc1cnn(-c2cc3cccc(-c4nc(C5CC5)n5c4CN(C)C(=O)C5C)c3cn2)c1` (stereo not shown) [Example 14, 3-Cyclopropyl-5,7-dimethyl-1-(3-(4-methyl-1H-pyrazol-1-yl)isoquinolin-8-yl)-7,8-dihydroimidazo[1,5-a]pyrazin-6(5H)-one] showed an IC50 [1] of 3 nM and an IC50 [2] of 440 nM.

`CC1C(=O)N(C)Cc2c(-c3cccc4cc(N5CCOCC5)ncc34)nc(C3CCOCC3)n21` (single isomer, unassigned) [Example 16b, 5,7-Dimethyl-1-(3-morpholinoisoquinolin-8-yl)-3-(tetrahydro-2H-pyran-4-yl)-7,8-dihydroimidazo[1,5-a]pyrazin-6(5H)-one] gave an IC50 [1] of 3 nM and an IC50 [2] of 353 nM.

With `COCCN1CC(c2nc(-c3cccc4nc(-c5cnn(C)c5)c(C(F)F)cc34)c3n2C(C)C(=O)N(C)C3)C1` (stereo not shown) [Example 23, 1-(3-(Difluoromethyl)-2-(1-methyl-1H-pyrazol-4-yl)quinolin-5-yl)-3-(1-(2-methoxyethyl)azetidin-3-yl)-5,7-dimethyl-7,8-dihydroimidazo[1,5-a]pyrazin-6(5H)-one] the IC50 [1] was 94 nM and the IC50 [2] was 24600 nM.

Compound `Cc1ncn(-c2cc3cccc(-c4nc(C5CC5)n5c4CN(C)C(=O)C5C)c3cn2)n1` (stereo not shown) [Example 71, 3-cyclopropyl-5,7-dimethyl-1-(3-(3-methyl-1H-1,2,4-triazol-1-yl)isoquinolin-8-yl)-7,8-dihydroimidazo[1,5-a] pyrazin-6(5H)-one] has an IC50 [1] of 4 nM and an IC50 [2] of 868 nM.

With `CN1Cc2c(-c3cccc4nc(-c5cnn(C)c5)c(C(F)F)cc34)nc(C3CC3)n2CC1=O` [Example 108, 3-cyclopropyl-1-(3-(difluoromethyl)-2-(1-methyl-1H-pyrazol-4-yl)quinolin-5-yl)-7-methyl-7,8-dihydroimidazo[1,5-a] pyrazin-6(5H)-one] the IC50 [1] was 114 nM and the IC50 [2] was 18300 nM.

`Cc1c(-c2nc3cccc(-c4nc(C5CC5)n5c4CN(C)C(=O)C5C)c3cc2C(F)F)cnn1C` (stereo not shown) [Example 61, 3-cyclopropyl-1-(3-(difluoromethyl)-2-(1,5-dimethyl-1H-pyrazol-4-yl)quinolin-5-yl)-5,7-dimethyl-7,8-dihydroimidazo[1,5-a] pyrazin-6(5H)-one] showed an IC50 [1] of 4 nM and an IC50 [2] of 511 nM.

`Cc1ncc(-c2cc3cccc(-c4nc(C5CC5)n5c4CN(C)C(=O)C5C)c3cn2)s1` (stereo not shown) [Example 13, 3-Cyclopropyl-5,7-dimethyl-1-(3-(2-methylthiazol-5-yl)isoquinolin-8-yl)-7,8-dihydroimidazo[1,5-a]pyrazin-6(5H)-one] was tested, and the IC50 [1] was 2 nM and the IC50 [2] was 187 nM.

Work on `CC1C(=O)N(C)Cc2c(-c3cccc4cc(-c5ccn(C)n5)ncc34)nc(C3CC3)n21` (stereo not drawn) [Example 62, 3-cyclopropyl-5,7-dimethyl-1-(3-(l-methyl-1H-pyrazol-3-yl)isoquinolin-8-yl)-7,8-dihydroimidazo[1,5-a] pyrazin-6(5H)-one] yielded an IC50 [1] of 2 nM and an IC50 [2] of 164 nM.

`Cc1nn(C)cc1-c1cc2cccc(-c3nc(C4CCOCC4)n4c3CN(C)C(=O)C4C)c2cn1` (stereo not shown) [Example 87, 1-(3-(1,3-dimethyl-1H-pyrazol-4-yl)isoquinolin-8-yl)-5,7-dimethyl-3-(tetrahydro-2H-pyran-4-yl)-7,8-dihydroimidazo[1,5-a] pyrazin-6(5H)-one] showed an IC50 [1] of 77 nM and an IC50 [2] of 10700 nM.

`C[C@@H]1C(=O)N(C)Cc2c(-c3cccc4nc(-c5ccn(C)n5)c(C(F)F)cc34)nc(C3CCOCC3)n21` [Example 89a, (R)-1-(3-(difluoromethyl)-2-(1-methyl-1H-pyrazol-3-yl)quinolin-5-yl)-5,7-dimethyl-3-(tetrahydro-2H-pyran-4-yl)-7,8-dihydroimidazo[1,5-a] pyrazin-6(5H)-one] gave an IC50 [1] of 1 nM and an IC50 [2] of 101 nM.

Work on `Cc1ncc(-c2cc3ccc(F)c(-c4nc(C5CCOCC5)n5c4CN(C)C(=O)C5C)c3cn2)s1` (single isomer, unassigned) [Example 37a, 1-(7-Fluoro-3-(2-methylthiazol-5-yl)isoquinolin-8-yl)-5,7-dimethyl-3-(tetrahydro-2H-pyran-4-yl)-7,8-dihydroimidazo[1,5-a]pyrazin-6(5H)-one] yielded an IC50 [1] of 1 nM and an IC50 [2] of 215 nM.

Work on `CCN1Cc2c(N3CCCc4cc(-c5cnn(C)c5)c(C(F)F)cc43)nc(C3CC3)n2CC1=O` [Example 48, 3-cyclopropyl-1-(7-(difluoromethyl)-6-(1-methyl-1H-pyrazol-4-yl)-3,4-dihydroquinolin-1(2H)-yl)-7-ethyl-7,8-dihydroimidazo[1,5-a] pyrazin-6(5H)-one] yielded an IC50 [1] of 18 nM and an IC50 [2] of 17600 nM.

`CC1C(=O)N(C)Cc2c(-c3cccc4nc(-c5cnn(C)c5)c(C#N)cc34)nc(C3CC3)n21` (single isomer, unassigned) [Example 56b, 5-(3-cyclopropyl-5,7-dimethyl-6-oxo-5,6,7,8-tetrahydroimidazo[1,5-a]pyrazin-1-yl)-2-(1-methyl-1H-pyrazol-4-yl)quinoline-3-carbonitrile] showed an IC50 [1] of 1 nM and an IC50 [2] of 132 nM.

Work on `CCC1C(=O)N(C)Cc2c(-c3cccc4nc(-c5cnn(C)c5)c(C(F)F)cc34)nc(C3CCOCC3)n21` (single isomer, unassigned) [Example 64a, 1-(3-(difluoromethyl)-2-(1-methyl-1H-pyrazol-4-yl)quinolin-5-yl)-5-ethyl-7-methyl-3-(tetrahydro-2H-pyran-4-yl)-7,8-dihydroimidazo[1,5-a] pyrazin-6(5H)-one] yielded an IC50 [1] of 2430 nM and an IC50 [2] of 25000 nM.

With `CC(=O)N1CC(c2nc(-c3cccc4nc(-c5cnn(C)c5)c(C(F)F)cc34)c3n2C(C)C(=O)N(C)C3)C1` (stereo not shown) [Example 19, 3-(1-Acetylazetidin-3-yl)-1-(3-(difluoromethyl)-2-(1-methyl-1H-pyrazol-4-yl)quinolin-5-yl)-5,7-dimethyl-7,8-dihydroimidazo[1,5-a]pyrazin-6(5H)-one] the IC50 [1] was 41 nM and the IC50 [2] was 5900 nM.

`Cc1c(-c2cc3cccc(-c4nc(C5CC5)n5c4CN(C)C(=O)C5C)c3cn2)cnn1C` (stereo not shown) [Example 59, 3-cyclopropyl-1-(3-(1,5-dimethyl-1H-pyrazol-4-yl)isoquinolin-8-yl)-5,7-dimethyl-7,8-dihydroimidazo[1,5-a] pyrazin-6(5H)-one] was tested, and the IC50 [1] was 4 nM and the IC50 [2] was 496 nM.

With `Cc1cn(-c2cc3ccc(F)c(-c4nc(C5CCOCC5)n5c4CN(C)C(=O)C5C)c3cn2)cn1` (single isomer, unassigned) [Example 33b, 1-(7-fluoro-3-(4-methyl-1H-imidazol-1-yl)isoquinolin-8-yl)-5,7-dimethyl-3-(tetrahydro-2H-pyran-4-yl)-7,8-dihydroimidazo[1,5-a]pyrazin-6(5H)-one] the IC50 [1] was 6 nM and the IC50 [2] was 2120 nM.

In the case of `CC1C(=O)N(C)Cc2c(-c3cccc4nc(-c5cnn(C)c5)c(C(F)F)cc34)nc(C3CN(CC(F)(F)F)C3)n21` (stereo not shown) [Example 21, 1-(3-(Difluoromethyl)-2-(1-methyl-1H-pyrazol-4-yl)quinolin-5-yl)-5,7-dimethyl-3-(1-(2,2,2-trifluoroethyl)azetidin-3-yl)-7,8-dihydroimidazo[1,5-a]pyrazin-6(5H)-one], the IC50 [1] is reported as 13 nM and the IC50 [2] is reported as 6160 nM.

`CN1Cc2c(-c3cccc4cc(C5CCOCC5)ncc34)nc(C3CCOCC3)n2CC1=O` [Example 99, 7-methyl-3-(tetrahydro-2H-pyran-4-yl)-1-(3-(tetrahydro-2H-pyran-4-yl)isoquinolin-8-yl)-7,8-dihydroimidazo[1,5-a] pyrazin-6(5H)-one] showed an IC50 [1] of 45 nM and an IC50 [2] of 18100 nM.

In the case of `CC1C(=O)N(C)Cc2c(-c3cccc4nc(-c5cnn(C)c5)c(C(F)F)cc34)nc(C3CN(S(C)(=O)=O)C3)n21` (stereo not shown) [Example 20, 1-(3-(Difluoromethyl)-2-(1-methyl-1H-pyrazol-4-yl)quinolin-5-yl)-5,7-dimethyl-3-(1-(methylsulfonyl)azetidin-3-yl)-7,8-dihydroimidazo[1,5-a]pyrazin-6(5H)-one], the IC50 [1] is reported as 37 nM and the IC50 [2] is reported as 8570 nM.

`CC1C(=O)N(C)Cc2c(-c3ccc4cncn4c3)nc(C3CC3)n21` (stereo not shown) [Example 54, 3-cyclopropyl-1-(imidazo[1,5-a]pyridin-6-yl)-5,7-dimethyl-7,8-dihydroimidazo[1,5-a] pyrazin-6(5H)-one] showed an IC50 [1] of 751 nM and an IC50 [2] of 2100 nM.

`CC1C(=O)N(C)Cc2c(-c3cccc4nc(-c5cnn(C)c5)c(C(F)F)cc34)nc(C3CCN(CCF)CC3)n21` (stereo not shown) [Example 81, 1-(3-(difluoromethyl)-2-(1-methyl-1H-pyrazol-4-yl)quinolin-5-yl)-3-(1-(2-fluoroethyl)piperidin-4-yl)-5,7-dimethyl-7,8-dihydroimidazo[1,5-a] pyrazin-6(5H)-one] gave an IC50 [1] of 153 nM and an IC50 [2] of 9630 nM.
